Source: a melting point compilation (Tetko et al.; mined from patent text by program, amines drawn as free bases though some values may be those of a salt)

| melting point | SMILES |
| --- | --- |
| 155 to 156 °C | CCCCCc1cc2c(cc1C#C/C=C/C(C)=C/C(=O)O)C(C)(C)CCC2(C)C |
| 64 to 65 °C | O=C1c2ccccc2CCc2ccc(Cl)cc21 |
| 103 to 105 °C | CC(=O)c1cccc(NC(=O)c2ccc3c(c2)CC(COCc2ccccc2)O3)c1O (stereo not given) |
| 334 °C | NS(=O)(=O)c1ccc(-c2cn(-c3nc(-c4ccc(Cl)c(Cl)c4)cc(C(F)(F)F)n3)cn2)cc1 |
| 164 to 165 °C | COc1cc2c(cc1OC)CCCC(C(=O)N1CCN(C(=O)c3cc(OC)c(OC)c(OC)c3)CC1)=C2 |
| 165 to 167 °C | FC(F)(F)Oc1ccc2[nH]c(-c3ccco3)nc2c1 |
| 180 to 181 °C | CNc1nc(S(=O)(=O)Nc2c(F)cccc2F)nn1-c1ccccc1 |
| 57 to 58 °C | Cc1cc(F)c(Cl)cc1[N+](=O)[O-] |
| 89 to 96 °C | Cc1noc(NS(=O)(=O)c2ccccc2-c2ccc(-c3ncco3)cc2CC(=O)N(C)C)c1C |
| 247 to 250 °C | CC(c1oc2ccccc2c(=O)c1-c1ccccc1F)n1cnc2c(N)ncnc21 (stereo not given) |
| 115 to 117 °C | CCCCCCCCCCN(C[C@H]1CCC[C@H](CN(CCCCCCCCCC)C(=O)Nc2ccc(N(C)C)cc2)C1)C(=O)Nc1ccc(N(C)C)cc1 (relative stereo) |
| 71.5 to 72 °C | COC(=O)CCC#CCCC(=O)O |
| 146 °C | O=C1CCC(O)(c2ccc(Cl)c(Cl)c2)CN1Cc1ccc(F)cc1 (stereo not given) |
| 195 to 197 °C | CC(C)[C@H](NC(=O)N(C)Cc1nccs1)C(=O)N[C@@H](Cc1ccccc1)C[C@H](O)[C@H](Cc1ccccc1)NC(=O)[C@@H](NC(=O)N(C)Cc1nccs1)C(C)C |
| 250 to 256 °C | CCNC(=O)c1ccc(N2CCN(Cc3ccc4c(c3)NC(=O)C(C)O4)CC2)cc1 (stereo not given) |
| 153 to 156 °C | COC(=O)c1cn2ccsc2n1 |
| 206 to 207 °C | ON=Cc1ccc2c(c1)Sc1ccccc1C=C2 |
| 126 to 127 °C | COC(=O)C(CCSC)NCC(=O)Nc1cccc2c1C(=O)c1c(NC(=O)CNC(CCSC)C(=O)OC)cccc1C2=O (stereo not given) |
| 232 to 233 °C | COc1ccc(C2=C(c3ccccc3)CCCc3cc(O)ccc32)cc1 |
| 85 to 86 °C | CCC(=O)C(CCCCCl)NC(=O)c1ccc(C)cc1 (stereo not given) |
| 92 to 93 °C | CCC(CC)(CC(=O)Nc1cccc(OCc2ccc3ccc(F)cc3n2)c1)C(=O)OC |
| 195 to 198 °C | O=C1C=C(Nc2ccc(F)cc2)CCN1 |
| > 300 °C | CC1(C)CC(=O)Nc2cc3nc(O)[nH]c3cc21 |

| melting point | SMILES |
| --- | --- |
| 98.2 °C | N#CC=Cc1ccc(Cl)c(Cl)c1 |
| 153 °C | CS(=O)(=O)NC(=O)COc1ccc(CCCS(=O)(=O)c2ccc(Cl)cc2)cc1NC(=O)c1cccc(OCc2nc3ccccc3s2)c1 |
| 68 to 71 °C | COc1ccc(OC(=O)CN2CCN(Cc3ccc(OC)c(OC)c3OC)CC2)cc1 |
| 182 to 183 °C | COC(=O)n1nnnc1-c1cnc2ccccn2c1=O |
| 173 to 175 °C | Cc1cnc(Oc2cccc(C(F)(F)F)c2)c(C(=O)O)c1 |
| 165 to 166 °C | CCCc1nnc(/C=C/c2cn(-c3ccccc3)nc2OCc2ccc(OCc3nc(-c4ccco4)oc3C)c(OC)c2)o1 |
| 155 to 157 °C | CC(C)(C)OC(=O)NC(Cc1c[nH]c2ccccc12)C(=O)OCCl (stereo not given) |
| 169 °C | O=C(O)Cc1ccc(SCc2ccccc2C(=O)O)cc1 |
| 121 to 123 °C | CCn1c(C2CCCO2)nc2c(N)nc(OCCc3ccccc3)nc21 (stereo not given) |
| 113 to 115 °C | N#Cc1cccc(C=Cc2ccc(Cl)cc2)n1 |
| 186 °C | CC1(C)Oc2ccc(OCCCC(F)(F)F)cc2[C@H](NS(C)(=O)=O)[C@H]1O |
| 170 to 172 °C | COc1cc2c(cc1OC)C(C=Cc1ccc(N(C)C)cc1)=NN=C(C)C2 |
| 99 to 100 °C | COC(=O)CS(=O)(=O)Nc1c(F)cc(F)cc1F |
| 107 to 109 °C | O=C(CNc1ccccc1)N1CCC(Cc2ccccc2)CC1 |
| 115 to 116 °C | COc1ccc(NS(=O)(=O)c2ccc([N+](=O)[O-])cc2[N+](=O)[O-])cc1 |
| 115 to 117 °C | Nc1ccccc1Oc1ccc2ncccc2c1 |
| 86 to 89 °C | COC1(c2ccc(F)cc2)CCC(=NO)CC1 (stereo not given) |
| 188 to 189 °C | CC(=O)c1cc(NC(=O)c2ccccc2)cc(C(C)=O)c1 |
| 129 to 130 °C | CN(C)CCN1C(=O)c2cscc2N(C)c2ncccc21 |
| 159 °C | NC1=NC2(O)c3ccc(Cl)cc3CC2(F)S1 (stereo not given) |
| 130 to 132 °C | CC(C)(C)N1OC(c2ccccc2)(N2CCOCC2)c2cc(Cl)ccc21 (stereo not given) |
| 178 °C | O=C(c1ccc(F)cc1)c1cccc(C(=O)c2ccc(F)cc2)c1 |
| 255 to 258 °C | COc1ncc(Nc2nc(N3CCOCC3)nc(-n3c(C(F)F)nc4c(OC)cccc43)n2)cn1 |

| melting point | SMILES |
| --- | --- |
| > 300 °C | O=C(O)c1ccc(-c2csc(-c3ccncc3)n2)cc1 |
| 140 to 141 °C | CC(=O)Nc1nc(CCc2ccc(CN3CCN(C(=O)OC(C)(C)C)CC3)cc2)cs1 |
| 110 to 111 °C | CCCOc1cc(COc2c(CC)cccc2CC(=O)O)n(Cc2ccc3ccccc3n2)n1 |
| 117 to 118 °C | COC(=O)c1cnc2c(C)cc(C)cc2c1-c1ccccc1Cl |
| 108 to 110 °C | N#CSc1ccc(N)c(N)c1 |
| 79.2 to 80.1 °C | COC(=O)COC(=O)Cc1cc(Oc2ccc(C(F)(F)F)cc2Cl)ccc1[N+](=O)[O-] |
| 104 to 107 °C | N#Cc1ccc(OCCCCCCCCCCCCOc2ccc(C#N)c(C#N)c2)cc1C#N |
| 190 to 192 °C | NC(=S)Nc1ccc2ccccc2c1 |
| 222 °C | NS(=O)(=O)c1cccc(-c2cccc(-c3nc(-c4ccc(C(F)(F)F)nc4)cc(C(F)F)n3)c2)c1 |
| 228 °C | NS(=O)(=O)c1ccc(-c2cccc(-c3nc(-c4ccc(F)cc4)cc(C(F)(F)F)n3)c2)s1 |
| 73 to 75 °C | CC(=O)Oc1cc2c(cc1C=O)C1CCC3(C)C(O)CCC3C1CC2 (stereo not given) |
| 212 to 214 °C | CC(C)Nc1nc2c(Cl)cc(Cl)cc2n1[C@H]1O[C@@H](CO)[C@H](O)[C@@H]1O |
| 142 °C | O=C(O)C1CC(O)CN1C(=O)c1ccc2c(c1)OCCO2 (stereo not given) |
| 190 to 192 °C | Cn1c2c(c3cc(C#N)ccc31)C(=O)CCC2 |
| 92 to 94 °C | O=C(SCC1C(=O)OCC1c1ccccc1)c1ccccc1F (stereo not given) |
| 166 to 168 °C | CC1(N2C(=O)c3ccc(CNC(=O)c4ccc(S(C)(=O)=O)cc4)cc3C2=O)CCC(=O)NC1=O (stereo not given) |
| 146 to 148 °C | COc1cc2c(c(Cl)c1Cl)C(=O)C(C)(C)C2c1ccccc1 (stereo not given) |
| 121 °C | CS(=O)(=O)Nc1cc(F)cc(F)c1 |
| 225 to 227 °C | CN1CCN(S(=O)(=O)c2ccc(O)cc2)CC1 |
| 207 to 208 °C | NC(=O)c1c(NC(=O)C2CC2)sc2c1CCC(F)(F)C2 |
| 164 °C | Nc1nc(OS(=O)(=O)Cl)nn1C(=O)Oc1ccccc1 |

| SMILES | melting point |
| --- | --- |
| COc1cc2c(C3=CCN(C[C@H](O)COc4cccc5[nH]ccc45)CC3)c[nH]c2cc1Cl | 115 to 120 °C |
| CC(C)(C)C(=O)c1c(CC(C)(C)C(=O)O)n(Cc2ccc(Cl)cc2)c2ccc(OCc3ccc4sccc4n3)cc12 | 193 to 194 °C |
| CCCCCC(C)C(C)c1cc(O)c2c3c(c(=O)oc2c1)CSC3 (stereo not given) | 165 to 166 °C |
